Source: patent US20260207602A1, “EGFR INHIBITORS” (Blueprint Medicines Corporation, priority 2022, published 2026)

Key:
EGFR M+ NSCLC patients = conditions: first line (1L), NSCLC harboring del19 and L858R mutations; cited from earlier work
[1] = target: intracellular phosphorylation of EGFR (Tyr1068) in PC-9 cells (Homo sapiens, UniProt P00533, DEL746-750); assay: PC-9 pEGFR AlphaLISA assay; assay type: cell-based; conditions: 4 hours incubation, read-out: Phos EGFR PC9 IC50
Method in brief: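 PC-9 cells (EGFR del746-750) in phenol-free DMEM/10% FBS, adhered overnight, then exposed to 10-point 4-fold compound dilutions for 4 h at 37 °C. Lysates assayed for pEGFR Tyr1068 by AlphaLISA SureFire Ultra; IC50 from percent pEGFR inhibition vs log concentration.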

EGFR L858R = target: T1, EGFR L858R (Homo sapiens, UniProt P00533, L858R); assay: Biochemical EGFR inhibition assay (Caliper mobility shift), EGFR L858R; conditions: biochemical Caliper mobility shift assay, EGFR L858R enzyme; read-out: Enz EGFR L858R IC50
T1 construct: purchased SignalChem E10-122BG
T1 sequence (P00533 25-1210 L858R): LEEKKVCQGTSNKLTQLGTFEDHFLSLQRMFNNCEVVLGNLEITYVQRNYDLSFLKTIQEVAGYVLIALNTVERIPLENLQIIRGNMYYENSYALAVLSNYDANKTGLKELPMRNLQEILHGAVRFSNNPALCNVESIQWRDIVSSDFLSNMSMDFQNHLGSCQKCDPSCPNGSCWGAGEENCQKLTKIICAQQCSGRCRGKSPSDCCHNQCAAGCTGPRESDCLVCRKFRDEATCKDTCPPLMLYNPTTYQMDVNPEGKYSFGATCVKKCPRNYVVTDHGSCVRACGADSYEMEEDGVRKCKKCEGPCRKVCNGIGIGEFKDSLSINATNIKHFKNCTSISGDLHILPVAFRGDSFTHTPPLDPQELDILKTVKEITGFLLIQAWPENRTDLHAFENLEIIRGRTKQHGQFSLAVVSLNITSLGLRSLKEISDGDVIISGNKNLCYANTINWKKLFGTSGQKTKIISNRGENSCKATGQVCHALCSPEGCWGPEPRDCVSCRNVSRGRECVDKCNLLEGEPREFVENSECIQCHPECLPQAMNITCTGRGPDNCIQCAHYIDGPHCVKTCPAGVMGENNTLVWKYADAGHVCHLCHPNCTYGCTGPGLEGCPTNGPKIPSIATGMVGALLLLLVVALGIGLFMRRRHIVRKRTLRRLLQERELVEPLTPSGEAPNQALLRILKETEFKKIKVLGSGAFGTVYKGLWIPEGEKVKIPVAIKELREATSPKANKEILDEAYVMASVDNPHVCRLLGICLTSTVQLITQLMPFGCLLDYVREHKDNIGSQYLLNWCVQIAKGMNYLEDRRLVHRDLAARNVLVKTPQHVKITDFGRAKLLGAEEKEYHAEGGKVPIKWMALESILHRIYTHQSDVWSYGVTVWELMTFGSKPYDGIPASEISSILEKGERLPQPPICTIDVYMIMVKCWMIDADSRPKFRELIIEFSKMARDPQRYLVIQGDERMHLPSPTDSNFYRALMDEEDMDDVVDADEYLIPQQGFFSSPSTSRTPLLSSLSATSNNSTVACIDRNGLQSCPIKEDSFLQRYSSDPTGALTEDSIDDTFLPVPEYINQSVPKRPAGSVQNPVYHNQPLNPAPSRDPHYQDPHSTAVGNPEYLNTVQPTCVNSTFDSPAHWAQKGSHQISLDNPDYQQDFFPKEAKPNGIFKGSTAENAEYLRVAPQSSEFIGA
Method in brief: (§1)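 Kinase activity measured as phosphorylation of 2.5 µM 5-FAM-labelled peptide substrate in 100 mM HEPES pH 7.5, 10 mM MgCl2, 0.015% Brij-35, 1 mM DTT, 1.0% DMSO, at 1.0 mM ATP or ATP Km. Run at 25 °C to 10–20% conversion, stopped with EDTA; product resolved by mobility shift, apparent IC50 from percent activity vs log concentration.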

EGFR (d746-750) = target: T2, EGFR (d746-750) (Homo sapiens, UniProt P00533, DEL746-750); assay: Biochemical EGFR inhibition assay (Caliper mobility shift), EGFR (d746-750); conditions: biochemical Caliper mobility shift assay, EGFR Exon 19-del enzyme; read-out: Enz EGFR Exon 19-del IC50
T2 construct: purchased SignalChem E10-122JG
T2 sequence (P00533 with tags, fused parts or gaps DEL746-750 limits assumed): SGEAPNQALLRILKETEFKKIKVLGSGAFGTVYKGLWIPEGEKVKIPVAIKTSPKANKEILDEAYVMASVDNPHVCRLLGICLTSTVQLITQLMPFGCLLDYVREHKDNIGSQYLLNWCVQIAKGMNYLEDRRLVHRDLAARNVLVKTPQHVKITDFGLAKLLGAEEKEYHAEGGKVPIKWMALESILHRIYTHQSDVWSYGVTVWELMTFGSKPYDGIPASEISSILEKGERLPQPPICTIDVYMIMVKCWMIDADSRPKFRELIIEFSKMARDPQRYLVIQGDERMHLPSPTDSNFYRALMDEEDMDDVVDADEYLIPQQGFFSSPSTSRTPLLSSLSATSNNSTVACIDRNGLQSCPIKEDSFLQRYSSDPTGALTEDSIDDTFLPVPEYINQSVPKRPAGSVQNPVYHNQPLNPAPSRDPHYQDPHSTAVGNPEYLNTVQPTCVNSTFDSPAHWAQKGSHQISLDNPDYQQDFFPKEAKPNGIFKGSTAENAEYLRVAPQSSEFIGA
Method in brief: as §1

Sequence of intracellular phosphorylation of EGFR (Tyr1068) in PC-9 cells (P00533 with tags, fused parts or gaps DEL746-750): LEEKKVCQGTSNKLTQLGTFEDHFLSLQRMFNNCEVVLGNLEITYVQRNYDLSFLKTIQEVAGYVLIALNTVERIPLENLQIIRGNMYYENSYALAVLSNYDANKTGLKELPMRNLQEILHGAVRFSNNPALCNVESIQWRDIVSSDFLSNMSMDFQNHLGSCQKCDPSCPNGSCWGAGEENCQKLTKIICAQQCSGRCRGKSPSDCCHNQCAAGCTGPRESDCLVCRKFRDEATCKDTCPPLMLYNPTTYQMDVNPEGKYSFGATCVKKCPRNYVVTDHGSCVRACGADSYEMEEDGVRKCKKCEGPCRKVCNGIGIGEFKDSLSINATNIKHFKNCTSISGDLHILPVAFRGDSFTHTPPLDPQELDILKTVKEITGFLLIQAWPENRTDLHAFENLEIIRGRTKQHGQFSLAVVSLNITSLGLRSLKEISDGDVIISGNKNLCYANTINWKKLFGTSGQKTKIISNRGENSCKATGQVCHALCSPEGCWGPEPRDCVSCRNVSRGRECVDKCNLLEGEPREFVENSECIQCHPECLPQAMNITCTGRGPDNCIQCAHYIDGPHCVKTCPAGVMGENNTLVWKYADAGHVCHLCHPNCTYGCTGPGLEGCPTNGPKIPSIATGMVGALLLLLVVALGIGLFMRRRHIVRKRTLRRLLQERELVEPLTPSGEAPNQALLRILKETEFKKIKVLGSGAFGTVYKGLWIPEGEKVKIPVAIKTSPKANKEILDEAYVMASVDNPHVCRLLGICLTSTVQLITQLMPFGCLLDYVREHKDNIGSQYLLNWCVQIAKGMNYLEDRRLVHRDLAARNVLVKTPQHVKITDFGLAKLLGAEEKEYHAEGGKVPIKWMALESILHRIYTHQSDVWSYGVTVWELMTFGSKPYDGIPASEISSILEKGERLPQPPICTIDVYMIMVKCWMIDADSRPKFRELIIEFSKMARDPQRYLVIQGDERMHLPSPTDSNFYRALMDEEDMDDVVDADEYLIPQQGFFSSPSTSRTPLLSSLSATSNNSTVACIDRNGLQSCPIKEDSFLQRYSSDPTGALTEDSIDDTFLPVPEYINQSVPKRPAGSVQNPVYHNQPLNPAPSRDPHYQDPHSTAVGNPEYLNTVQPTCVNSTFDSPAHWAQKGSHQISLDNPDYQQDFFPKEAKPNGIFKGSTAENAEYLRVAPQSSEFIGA

Structure (SMILES) | IC50 [1] [nM] | IC50 (EGFR L858R) [nM] | IC50 (EGFR (d746-750)) [nM] | progression-free survival (PFS) (EGFR M+ NSCLC patients) [mo]
C=CC(=O)Nc1cc(Nc2nccc(-c3cn(C)c4ccccc34)n2)c(OC)cc1N(C)CCN(C)C [Osimertinib] | – | – | – | 18.9
Cn1cc(-c2cc(O[C@@H]3C[C@@H](O)[C@@H](O)C3)c3c(Nc4ccc5ncsc5c4)ncnc3c2)cn1 (single isomer, unassigned) [Example A22] | 10.1 to 50 | ≤ 10 | ≤ 10 | –
CO[C@@H]1CCN(C)C[C@H]1Oc1cc(-c2cnn(C)c2)cc2ncnc(Nc3ccc4ncsc4c3)c12 (single isomer, unassigned) [Example A39] | > 50.1 | 10.1 to 50 | ≤ 10 | –
Cn1cc(-c2cc(O[C@@H]3CC[C@H]3O)c3c(Nc4ccc5ncsc5c4)ncnc3c2)cn1 (single isomer, unassigned) [Example A54] | 10.1 to 50 | ≤ 10 | ≤ 10 | –
C[C@@H](Oc1cc(-c2cnn(C)c2)cc2ncnc(Nc3ccc4ncsc4c3)c12)C1COC1 [Example 133, (R)—N-(7-(1-methyl-1H-pyrazol-4-yl)-5-(1-(oxetan-3-yl)ethoxy)quinazolin-4-yl)benzo[d]thiazol-6-amine] | ≤ 10 | ≤ 10 | ≤ 10 | –
COc1cn(C)nc1-c1cc(O[C@H](C)C2COC2)c2c(Nc3ccc4ncsc4c3F)ncnc2c1 (single isomer, unassigned) [Example 81] | 10.1 to 50 | ≤ 10 | ≤ 10 | –
COCCN1CCN(c2cc(O[C@H](C)COC)c3c(Nc4ccc5ncsc5c4)ncnc3c2)CC1 [Example 201, (R)-N-(7-(4-(2-methoxyethyl)piperazin-1-yl)-5-((1-methoxypropan-2-yl)oxy)quinazolin-4-yl)benzo[d]thiazol-6-amine] | 10.1 to 50 | ≤ 10 | ≤ 10 | –

The next lines start with results.

IC50 [1] [nM] | IC50 (EGFR L858R) [nM] | IC50 (EGFR (d746-750)) [nM] | Structure (SMILES) | progression-free survival (PFS) (EGFR M+ NSCLC patients) [mo]
≤ 10 | ≤ 10 | ≤ 10 | CCC(=O)N1CCC(Nc2cc3c(Nc4ccc5ncsc5c4)ncnc3cc2-c2ccn(C)n2)CC1 [Example 257, 1-(4-((4-(benzo[d]thiazol-6-ylamino)-7-(1-methyl-1H-pyrazol-3-yl)quinazolin-6-yl)amino)piperidin-1-yl)propan-1-one] | –
≤ 10 | ≤ 10 | ≤ 10 | [2H]C([2H])([2H])Oc1cc(O[C@H](C)C2COC2)c2c(Nc3ccc4ncsc4c3F)ncnc2c1 [Example 130, (R)-7-fluoro-N-(7-(methoxy-d3)-5-(1-(oxetan-3-yl)ethoxy)quinazolin-4-yl)benzo[d]thiazol-6-amine] | –
≤ 10 | ≤ 10 | ≤ 10 | Cn1cc(-c2cc(O[C@H]3COC[C@H]3F)c3c(Nc4ccc5ncsc5c4)ncnc3c2)cn1 (racemic) [Example A10, N-(5-(((3S,4R)-4-fluorotetrahydrofuran-3-yl)oxy)-7-(1-methyl-1H-pyrazol-4-yl)quinazolin-4-yl)benzo[d]thiazol-6-amine] | –
≤ 10 | ≤ 10 | ≤ 10 | Cn1cc(-c2cc(O[C@@H]3CC[C@H](O)C3)c3c(Nc4ccc5ncsc5c4)ncnc3c2)cn1 [Example 411, (1S,3R)-3-((4-(benzo[d]thiazol-6-ylamino)-7-(1-methyl-1H-pyrazol-4-yl)quinazolin-5-yl)oxy)cyclopentan-1-ol] | –
